Data published in patent US9023852B2, “1, 2, 4-thiadiazol-5-ylpiperazine derivatives useful in the treatment of neurodegenerative diseases” (Remynd NV, priority 2011, dated 2015).

Each compound was assayed on M17—3TAU(P301L) cells (assay: Neuroblastoma tauopathy model: inhibition of TAU-induced cytotoxicity (LDH)). Conditions: Homo sapiens, 168 h; inhibition of TAU-induced toxicity (LDH), 7 days differentiation with retinoic acid.
Format: cell-based
Source text: A TAU expression plasmid was constructed by sub-cloning the cDNA encoding for human TAU-P301L protein, wherein proline at position 301 is substituted by a leucine residue, into mammalian expression vector pcDNA3.1 resulting in the plasmid pcDNA3.1-TAUP301L. Plasmids pcDNA3.1 and pcDNA3.1-TAU P301L were transfected into human neuroblastoma cells (BE-M17; ATCC No. CRL-2267™) using lipofectamine reagent and subsequently, independent clonal cell lines with the plasmids stably integrated into the genome were selected by antibiotic resistance selection (Geneticin (G418)), resulting in cell lines M17.pcDNA3 and M17—3TAUP301L. Expression of the TAUP301L gene in the M17—3TAUP301L cells was confirmed by Western blot analysis.
Differentiation of the cells with RA leads to phosphorylation and subsequent aggregation of TAU, inducing a tauopathy in these cells. Cytotoxicity of cells was measured by quantification of lactate dehydrogenase (LDH) levels. In dead cells LDH is leaked out of the cells into the medium due to a loss of plasma-membrane integrity.
Briefly, 3 days preceding the experiment pre-cultures of M17.pcDNA3 and M17—3TAU(P301L) cells were prepared, starting from a stock culture, at a density of 50.000-100.000 cells/cm2 in detection medium (Optimem Reduced Serum without phenol red (Gibco, Cat. 31985-047) supplemented with 1% fetal calf serum (FCS), 1 mM sodium pyruvate, 1× non-essential amino acids (NEAA), 500 μg/ml G418 and 0.5× antibiotic/antimycotic (ABAM)). At the day of the experiment these precultures were diluted to ˜0, 1.106 cells/ml in detection medium without FCS and 60 μL of this suspension is dispensed per well into a 96-well microtiter plate. After 3 hours of incubation at 37° C./5% CO2 an equal volume of detection medium containing 2.5 μM RA was added and subsequently incubated for 7 days at 37° C./5% CO2. After 7 days, LDH activity was determined using the Promega Cytotox 96 Non-Radioactive cytotoxicity assay (Cat. G1780), according the manufacturer's instructions. Cytotoxicity is measured as the ratio of LDH increase in the supernatant divided by the LDH increase in the total cell suspension (sum of the LDH measured in cells and supernatant).
The M17—3TAU(P301L) cell line makes it possible to assess the ability of novel compounds to inhibit TAU-induced cytotoxicity. […] Compounds were tested for their ability to hamper TAU-induced toxicity at different concentrations, ranging from low non-effective concentrations to high potent concentrations. Afterwards, the dose-dependent inhibition curve was used to calculate their EC50 (Table 1).

Structure (SMILES)	EC50 [nM]
Clc1cccc(-c2nsc(N3CCN(CCC4CCOCC4)CC3)n2)c1 [Example 165, 3-(3-chlorophenyl)-5-(4-(2-(tetrahydro-2H-pyran-4-yl)ethyl)piperazin-1-yl)-1,2,4-thiadiazole]	1.1
Cc1ccccc1CN1CCN(c2nc(-c3ccc(F)c(F)c3)ns2)CC1 [Example 107, 1-[3-(3,4-Difluoro-phenyl)-[1,2,4]thiadiazol-5-yl]-4-(2-methyl-benzyl)-piperazine]	72.2
Clc1ccnc(-c2nsc(N3CCN(CCc4ccccc4)CC3)n2)c1 [Example 120, 1-[3-(4-Chloro-pyridin-2-yl)-[1,2,4]thiadiazol-5-yl]-4-phenethyl-piperazine]	16.1
N#Cc1ccc(-c2nsc(N3CCN(CCc4ccc(Cl)cc4)CC3)n2)cc1 [Example 112, 4-(5-{4-[2-(4-Chloro-phenyl)-ethyl]piperazin-1-yl}-[1,2,4]thiadiazol-3-yl)-benzonitrile]	56.7
FC(F)Oc1cccc(CCN2CCN(c3nc(-c4ccc(Cl)cc4)ns3)CC2)c1 [Example 69, 1-[3-(4-Chloro-phenyl)-[1,2,4]thiadiazol-5-yl]-4-[2-(3-difluoromethoxy-phenyl)-ethyl]-piperazine]	43.7
COc1ccc(CCN2CCN(c3nc(-c4ccc(Cl)cc4F)ns3)CC2)cc1 [Example 56, 1-[3-(4-Chloro-2-fluoro-phenyl)-[1,2,4]thiadiazol-5-yl]-4-[2-(4-methoxy-phenyl)-ethyl]-piperazine]	5.5
Clc1cncc(-c2nsc(N3CCN(CCC4CCOCC4)CC3)n2)c1 [Example 166, 3-(5-chloropyridin-3-yl)-5-(4-(2-(tetrahydro-2H-pyran-4-yl)ethyl)piperazin-1-yl)-1,2,4-thiadiazole]	0.7
N#Cc1ccc(-c2nsc(N3CCN(CCc4ccc(F)c(F)c4)CC3)n2)cc1 [Example 138, 4-(5-{4-[2-(3,4-Difluoro-phenyl)-ethyl]piperazin-1-yl}-[1,2,4]thiadiazol-3-yl)-benzonitrile]	18.2
N#Cc1ccc(-c2nsc(N3CCN(CCc4ccc(F)cc4)CC3)n2)cc1 [Example 110, 4-(5-{4-[2-(4-Fluoro-phenyl)-ethyl]piperazin-1-yl}-[1,2,4]thiadiazol-3-yl)-benzonitrile]	17.8
Clc1ccc(CCN2CCN(c3nc(-c4ccc(Cl)cc4)ns3)CC2)cc1 [Example 25, 1-[2-(4-Chloro-phenyl)-ethyl]-4-[3-(4-chloro-phenyl)-[1,2,4]thiadiazol-5-yl]-piperazine]	7.7
Fc1ccc(CCN2CCN(c3nc(-c4cccc(Cl)c4)ns3)CC2)cc1 [Example 85, 1-[3-(3-Chloro-phenyl)-[1,2,4]thiadiazol-5-yl]-4-[2-(4-fluoro-phenyl)-ethyl]-piperazine]	3.1
Cc1ccccc1CN1CCN(c2nc(-c3ccc(C#N)cc3)ns2)CC1 [Example 118, 4-{5-[4-(2-Methyl-benzyl)-piperazin-1-yl]-[1,2,4]thiadiazol-3-yl}-benzonitrile]	181
COc1ccc(CCN2CCN(c3nc(-c4cccs4)ns3)CC2)cc1 [Example 44, 1-[2-(4-Methoxy-phenyl)-ethyl]-4-(3-thiophen-2-yl-[1,2,4]thiadiazol-5-yl)-piperazine]	2.3
Clc1ccc(CCN2CCN(c3nc(-c4ccnc(Cl)c4)ns3)CC2)cc1 [Example 169, 5-(4-(4-chlorophenethyl)piperazin-1-yl)-3-(2-chloropyridin-4-yl)-1,2,4-thiadiazole]	10.4
COc1cccc(CCN2CCN(c3nc(-c4ccc(Cl)cc4F)ns3)CC2)c1 [Example 55, 1-[3-(4-Chloro-2-fluoro-phenyl)-[1,2,4]thiadiazol-5-yl]-4-[2-(3-methoxy-phenyl)-ethyl]-piperazine]	4.2
Clc1ccc(CCN2CCN(c3nc(-c4cncc(Cl)c4)ns3)CC2)cc1 [Example 132, 1-[2-(4-Chloro-phenyl)-ethyl]-4-[3-(5-chloro-pyridin-3-yl)-[1,2,4]thiadiazol-5-yl]-piperazine]	3.3
Fc1ccccc1CCN1CCN(c2nc(-c3ccc(Cl)cc3)ns2)CC1 [Example 28, 1-[3-(4-Chloro-phenyl)-[1,2,4]thiadiazol-5-yl]-4-[2-(2-fluoro-phenyl)-ethyl]-piperazine]	45.2
Fc1ccc(CCN2CCN(c3nc(-c4ccc(F)c(F)c4)ns3)CC2)cc1F [Example 136, 1-[2-(3,4-Difluoro-phenyl)-ethyl]-4-[3-(3,4-difluoro-phenyl)-[1,2,4]thiadiazol-5-yl]-piperazine]	6.2
Clc1cc(-c2nsc(N3CCN(CCc4ccccc4)CC3)n2)ccn1 [Example 170, 3-(2-chloropyridin-4-yl)-5-(4-phenethylpiperazin-1-yl)-1,2,4-thiadiazole]	0.7
Cc1ccc(-c2nsc(N3CCN(Cc4ccccc4C)CC3)n2)cc1 [Example 6, 1-(2-Methyl-benzyl)-4-(3-p-tolyl-[1,2,4]thiadiazol-5-yl)-piperazine]	278
Fc1ccc(-c2nsc(N3CCN(CCC4CCOCC4)CC3)n2)cc1F [Example 164, 3-(3,4-difluorophenyl)-5-(4-(2-(tetrahydro-2H-pyran-4-yl)ethyl)piperazin-1-yl)-1,2,4-thiadiazole]	3.4
Cc1ccc(-c2nsc(N3CCN(CCc4ccccc4)CC3)n2)cc1 [Example 4, 1-Phenethyl-4-(3-p-tolyl-[1,2,4]thiadiazol-5-yl)-piperazine]	115
N#Cc1cccc(-c2nsc(N3CCN(CCc4ccc(Cl)cc4)CC3)n2)c1 [Example 113, 3-(5-{4-[2-(4-Chloro-phenyl)-ethyl]piperazin-1-yl}-[1,2,4]thiadiazol-3-yl)-benzonitrile]	17.1
OC(CN1CCN(c2nc(-c3ccc(Cl)cc3)ns2)CC1)c1cccc(F)c1 (stereo not drawn) [Example 63, 2-{4-[3-(4-Chloro-phenyl)-[1,2,4]thiadiazol-5-yl]-piperazin-1-yl}-1-(3-fluoro-phenyl)-ethanol]	7.4
N#Cc1ccc(-c2nsc(N3CCN(CCc4ccccc4)CC3)n2)cc1 [Example 108, 4-[5-(4-Phenethyl-piperazin-1-yl)-[1,2,4]thiadiazol-3-yl]-benzonitrile]	7.9
FC(F)(F)c1ccc(CCN2CCN(c3nc(-c4cncc(Cl)c4)ns3)CC2)cc1 [Example 152, 1-[3-(5-Chloro-pyridin-3-yl)-[1,2,4]thiadiazol-5-yl]-4-[2-(4-trifluoromethyl-phenyl)-ethyl]-piperazine]	215
COc1ccc(CCN2CCN(c3nc(-c4ccc(Cl)cn4)ns3)CC2)cc1 [Example 126, 1-[3-(5-Chloro-pyridin-2-yl)-[1,2,4]thiadiazol-5-yl]-4-[2-(4-methoxy-phenyl)-ethyl]-piperazine]	7
COc1cc(CCN2CCN(c3nc(-c4cccc(F)c4)ns3)CC2)ccn1 [Example 90, 1-[3-(3-Fluoro-phenyl)-[1,2,4]thiadiazol-5-yl]-4-[2-(2-methoxy-pyridin-4-yl)-ethyl]-piperazine]	6.8
COc1ccc(CCN2CCN(c3nc(-c4ccc(Cl)cc4)ns3)CC2)cn1 [Example 79, 1-[3-(4-Chloro-phenyl)-[1,2,4]thiadiazol-5-yl]-4-[2-(6-methoxy-pyridin-3-yl)-ethyl]-piperazine]	2.8
COc1cccc(CCN2CCN(c3nc(-c4ccc(F)cc4OC)ns3)CC2)c1 [Example 66, 1-[3-(4-Fluoro-2-methoxy-phenyl)-[1,2,4]thiadiazol-5-yl]-4-[2-(3-methoxy-phenyl)-ethyl]-piperazine]	1.5
